Source: patent US12139492B2 (Endotarget Inc., priority 2021, dated 2024)

Tests used:
Assay type in all cases: cell-based
[1] = tested on: Mino cells; experiment: Antiproliferative effect, MTS cell viability assay, Mino cells; conditions: Homo sapiens, MINO, Mino mantle cell lymphoma cells; read-out: IC50 (anti-proliferation) Mino cells
In short: (§1)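 Tested at six concentrations (0 to 10 μM in tenfold steps), 72 h; viability by MTS, A490.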

[2] = target: BTK (Homo sapiens, UniProt Q06187); experiment: BTK degradation, DC50 and Dmax of Table 1 (cell line not given); parameters: endogenous in cells; conditions: for DC50: concentration giving 50% reduction of BTK expression level
[3] = tested on: JeKo-1 cells; experiment: Antiproliferative effect, MTS cell viability assay, JeKo-1 cells; conditions: Homo sapiens; JeKo-1 mantle cell lymphoma cells; read-out: IC50 (anti-proliferation) JeKO-1 cells
In short: as §1

Chain of BTK (Q06187 whole entry): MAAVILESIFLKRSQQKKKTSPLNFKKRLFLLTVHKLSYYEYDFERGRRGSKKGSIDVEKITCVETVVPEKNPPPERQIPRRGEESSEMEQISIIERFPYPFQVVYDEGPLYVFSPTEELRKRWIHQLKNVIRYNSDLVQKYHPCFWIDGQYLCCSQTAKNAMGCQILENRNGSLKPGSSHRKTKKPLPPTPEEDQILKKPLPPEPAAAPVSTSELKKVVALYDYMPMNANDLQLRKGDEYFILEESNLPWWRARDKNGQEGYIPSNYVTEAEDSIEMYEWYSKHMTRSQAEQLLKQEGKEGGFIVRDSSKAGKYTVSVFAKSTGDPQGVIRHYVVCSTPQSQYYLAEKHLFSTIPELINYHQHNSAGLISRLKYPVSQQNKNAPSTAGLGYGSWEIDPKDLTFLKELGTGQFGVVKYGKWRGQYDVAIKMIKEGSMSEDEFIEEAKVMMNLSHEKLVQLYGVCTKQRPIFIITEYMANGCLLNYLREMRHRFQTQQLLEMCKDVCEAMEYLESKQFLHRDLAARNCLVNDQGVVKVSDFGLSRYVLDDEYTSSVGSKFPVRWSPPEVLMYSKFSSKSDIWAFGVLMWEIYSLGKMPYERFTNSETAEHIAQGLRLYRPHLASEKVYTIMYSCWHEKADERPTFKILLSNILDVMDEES

Question: What does the source list for `Nc1ncnc2c1c(-c1ccc(Oc3ccccc3)cc1)nn2C1CCN(C(=O)N2CCC(N3CCC(c4ccc5c(c4)C(=O)N(C4CCC(=O)NC4=O)C5=O)CC3)CC2)CC1` (stereo not drawn) [Compound 83, 5-(1′-(4-(4-amino-3-(4-phenoxyphenyl)-1H-pyrazolo[3,4-d]pyrimidin-1-yl)piperidine-1-carbonyl)-[1,4′-bipiperidin]-4-yl)-2-(2,6-dioxopiperidin-3-yl)isoindoline-1,3-dione]?
Answer: IC50 [1]: > 10000 nM; Dmax [2]: > 75%; DC50 [2]: > 50 nM; IC50 [3]: > 10000 nM

Question: With `Nc1ncnc2c1c(-c1ccc(Oc3ccccc3)cc1)nn2[C@@H]1CCCN(C2CCN(CCCN3CCN(c4ccc5c(c4)C(=O)N(C4CCC(=O)NC4=O)C5=O)CC3)CC2)C1` (stereo partly drawn) [Compound 151, 5-(4-(3-((R)-3-(4-amino-3-(4-phenoxyphenyl)-1H-pyrazolo[3,4-d]pyrimidin-1-yl)-[1,4′-bipiperidin]-1′-yl)propyl)piperazin-1-yl)-2-(2,6-dioxopiperidin-3-yl)isoindoline-1,3-dione] as the molecule, how does the IC50 [1] read?
Answer: The IC50 was greater than 10000 nM.

Question: What about the Dmax [2] of the same molecule?
Answer: The Dmax was greater than 75%.

Question: And the DC50 [2]?
Answer: The DC50 was greater than 50 nM.

Question: And the IC50 [3]?
Answer: Its IC50 is greater than 10000 nM.

Question: What does the source list for `Nc1ncnc2c1c(-c1ccc(Oc3ccccc3)cc1)nn2C1CCN(C(=O)N2CCC(CCCN3CCC(c4ccc5c(c4)CN(C4CCC(=O)NC4=O)C5=O)CC3)CC2)CC1` (stereo not drawn) [Compound 128, 3-(5-(1-(3-(1-(4-(4-amino-3-(4-phenoxyphenyl)-1H-pyrazolo[3,4-d]pyrimidin-1-yl)piperidine-1-carbonyl)piperidin-4-yl)propyl)piperidin-4-yl)-1-oxoisoindolin-2-yl)piperidine-2,6-dione]?
Answer: IC50 [1]: 1000 to 10000 nM; Dmax [2]: > 90%; DC50 [2]: > 50 nM; IC50 [3]: > 10000 nM

Question: `Nc1ncnc2c1c(-c1ccc(Oc3ccccc3)cc1)nn2[C@@H]1CCCN(C2CCN(C(=O)N3CCN(c4ccc5c(c4)CN(C4CCC(=O)NC4=O)C5=O)CC3)CC2)C1` (stereo partly drawn) [Compound 160, 3-(5-(4-((R)-3-(4-amino-3-(4-phenoxyphenyl)-1H-pyrazolo[3,4-d]pyrimidin-1-yl)-[1,4′-bipiperidine]-1′-carbonyl)piperazin-1-yl)-1-oxoisoindolin-2-yl)piperidine-2,6-dione] was tested. Which IC50 [1] did it give?
Answer: Its IC50 is 1000 to 10000 nM.

Question: And the Dmax [2]?
Answer: Its Dmax is greater than 50%.

Question: What about the DC50 [2] of the same molecule?
Answer: The DC50 was greater than 50 nM.

Question: And the IC50 [3]?
Answer: The IC50 was greater than 10000 nM.

Question: Which results are given for `Nc1ncnc2c1c(-c1ccc(Oc3ccccc3)cc1)nn2C1CCCN(CCOCCOCCC2CCN(c3ccc4c(c3)C(=O)N(C3CCC(=O)NC3=O)C4=O)CC2)C1` (stereo not drawn) [Compound 21, 5-(4-(2-(2-(2-(3-(4-amino-3-(4-phenoxyphenyl)-1H-pyrazolo[3,4-d]pyrimidin-1-yl)piperidin-1-yl)ethoxy)ethoxy)ethyl)piperidin-1-yl)-2-(2,6-dioxopiperidin-3-yl)isoindoline-1,3-dione]?
Answer: IC50 [1]: 1000 to 10000 nM; Dmax [2]: > 90%; DC50 [2]: < 10 nM; IC50 [3]: 1000 to 10000 nM

Question: With `Nc1ncnc2c1c(-c1ccc(Oc3ccccc3)cc1)nn2C1CCN(C(=O)N2CCC(CCCN3CCC(c4ccc5c(c4)C(=O)N(C4CCC(=O)NC4=O)C5=O)CC3)CC2)CC1` (stereo not drawn) [Compound 127, 5-(1-(3-(1-(4-(4-amino-3-(4-phenoxyphenyl)-1H-pyrazolo[3,4-d]pyrimidin-1-yl)piperidine-1-carbonyl)piperidin-4-yl)propyl)piperidin-4-yl)-2-(2,6-dioxopiperidin-3-yl)isoindoline-1,3-dione] as the molecule, how does the IC50 [1] read?
Answer: The IC50 was 1000 to 10000 nM.

Question: What about the Dmax [2] of the same molecule?
Answer: Its Dmax is greater than 90%.

Question: And the DC50 [2]?
Answer: Its DC50 is greater than 50 nM.

Question: What about the IC50 [3] of the same molecule?
Answer: The IC50 was greater than 10000 nM.

Question: What does the source list for `Nc1ncnc2c1c(-c1ccc(Oc3ccccc3)cc1)nn2[C@@H]1CCCN(C2CCN(C(=O)N3CCN(CCC4CCN(c5ccc6c(c5)C(=O)N(C5CCC(=O)NC5=O)C6=O)CC4)CC3)CC2)C1` (stereo partly drawn) [Compound 177, 5-(4-(2-(4-((R)-3-(4-amino-3-(4-phenoxyphenyl)-1H-pyrazolo[3,4-d]pyrimidin-1-yl)-[1,4′-bipiperidine]-1′-carbonyl)piperazin-1-yl)ethyl)piperidin-1-yl)-2-(2,6-dioxopiperidin-3-yl)isoindoline-1,3-dione]?
Answer: IC50 [1]: 1000 to 10000 nM; Dmax [2]: > 90%; DC50 [2]: 10 to 50 nM; IC50 [3]: 1000 to 10000 nM

Question: Which results are given for `Nc1ncnc2c1c(-c1ccc(Oc3ccccc3)cc1)nn2[C@@H]1CCCN(C2CCN(CC3CCN(c4ccc5c(c4)C(=O)N(C4CCC(=O)NC4=O)C5=O)CC3)CC2)C1` (stereo partly drawn) [Compound 143, 5-(4-(((R)-3-(4-amino-3-(4-phenoxyphenyl)-1H-pyrazolo[3,4-d]pyrimidin-1-yl)-[1,4′-bipiperidin]-1′-yl)methyl)piperidin-1-yl)-2-(2,6-dioxopiperidin-3-yl)isoindoline-1,3-dione]?
Answer: IC50 [1]: > 10000 nM; Dmax [2]: > 90%; DC50 [2]: 10 to 50 nM; IC50 [3]: > 10000 nM

Question: Which results are given for `Nc1ncnc2c1c(-c1ccc(Oc3ccccc3)cc1)nn2C1CCN(C(=O)N2CCC(c3ccc4c(c3)CN(C3CCC(=O)NC3=O)C4=O)CC2)CC1` (stereo not drawn) [Compound 78, 3-(5-(1-(4-(4-amino-3-(4-phenoxyphenyl)-1H-pyrazolo[3,4-d]pyrimidin-1-yl)piperidine-1-carbonyl)piperidin-4-yl)-1-oxoisoindolin-2-yl)piperidine-2,6-dione]?
Answer: IC50 [1]: > 10000 nM; Dmax [2]: > 50%; DC50 [2]: > 50 nM; IC50 [3]: > 10000 nM

Question: For `Nc1ncnc2c1c(-c1ccc(Oc3ccccc3)cc1)nn2[C@@H]1CCCN(C2CCN(CCN3CCC(c4ccc5c(c4)CN(C4CCC(=O)NC4=O)C5=O)CC3)CC2)C1` (stereo partly drawn) [Compound 150, 3-(5-(1-(2-((R)-3-(4-amino-3-(4-phenoxyphenyl)-1H-pyrazolo[3,4-d]pyrimidin-1-yl)-[1,4′-bipiperidin]-1′-yl)ethyl)piperidin-4-yl)-1-oxoisoindolin-2-yl)piperidine-2,6-dione], which IC50 [1] is on record?
Answer: Its IC50 is greater than 10000 nM.

Question: What about the Dmax [2] of the same molecule?
Answer: Its Dmax is greater than 75%.

Question: And the DC50 [2]?
Answer: Its DC50 is 10 to 50 nM.

Question: What about the IC50 [3] of the same molecule?
Answer: Its IC50 is 1000 to 10000 nM.

Question: How did the IC50 [1] turn out when `Nc1ncnc2c1c(-c1ccc(Oc3ccccc3)cc1)nn2[C@@H]1CCCN(C2CCN(C(=O)N3CCC(CCC4CCN(c5ccc6c(c5)CN(C5CCC(=O)NC5=O)C6=O)CC4)CC3)CC2)C1` (stereo partly drawn) [Compound 186, 3-(5-(4-(2-(1-((R)-3-(4-amino-3-(4-phenoxyphenyl)-1H-pyrazolo[3,4-d]pyrimidin-1-yl)-[1,4′-bipiperidine]-1′-carbonyl)piperidin-4-yl)ethyl)piperidin-1-yl)-1-oxoisoindolin-2-yl)piperidine-2,6-dione] was run?
Answer: The IC50 was 1000 to 10000 nM.

Question: And the Dmax [2]?
Answer: The Dmax was greater than 75%.

Question: And the DC50 [2]?
Answer: Its DC50 is 10 to 50 nM.

Question: And the IC50 [3]?
Answer: Its IC50 is 1000 to 10000 nM.

Question: With `Nc1ncnc2c1c(-c1ccc(Oc3ccccc3)cc1)nn2[C@@H]1CCCN(C2CCN(C(=O)N3CCN(CCCN4CCN(c5ccc6c(c5)C(=O)N(C5CCC(=O)NC5=O)C6=O)CC4)CC3)CC2)C1` (stereo partly drawn) [Compound 187, 5-(4-(3-(4-((R)-3-(4-amino-3-(4-phenoxyphenyl)-1H-pyrazolo[3,4-d]pyrimidin-1-yl)-[1,4′-bipiperidine]-1′-carbonyl)piperazin-1-yl)propyl)piperazin-1-yl)-2-(2,6-dioxopiperidin-3-yl)isoindoline-1,3-dione] as the molecule, how does the IC50 [1] read?
Answer: Its IC50 is 1000 to 10000 nM.

Question: What about the Dmax [2] of the same molecule?
Answer: The Dmax was greater than 75%.

Question: What about the DC50 [2] of the same molecule?
Answer: Its DC50 is greater than 50 nM.

Question: What about the IC50 [3] of the same molecule?
Answer: Its IC50 is 1000 to 10000 nM.

Question: What does the source list for `Nc1ncnc2c1c(-c1ccc(Oc3ccccc3)cc1)nn2[C@@H]1CCCN(C(=O)N2CCC(CCCC3CCN(c4ccc5c(c4)CN(C4CCC(=O)NC4=O)C5=O)CC3)CC2)C1` (stereo partly drawn) [Compound 114]?
Answer: IC50 [1]: 1000 to 10000 nM; Dmax [2]: > 75%; DC50 [2]: > 50 nM; IC50 [3]: 1000 to 10000 nM

Question: How did the IC50 [1] turn out when `Nc1ncnc2c1c(-c1ccc(Oc3ccccc3)cc1)nn2C1CCCN(CCOCCOCCN2CCC(c3ccc4c(c3)CN(C3CCC(=O)NC3=O)C4=O)CC2)C1` (stereo not drawn) [Compound 14, 3-(5-(1-(2-(2-(2-(3-(4-amino-3-(4-phenoxyphenyl)-1H-pyrazolo[3,4-d]pyrimidin-1-yl)piperidin-1-yl)ethoxy)ethoxy)ethyl)piperidin-4-yl)-1-oxoisoindolin-2-yl)piperidine-2,6-dione] was run?
Answer: Its IC50 is 1000 to 10000 nM.

Question: What about the Dmax [2] of the same molecule?
Answer: The Dmax was greater than 90%.

Question: What about the DC50 [2] of the same molecule?
Answer: Its DC50 is 10 to 50 nM.

Question: What about the IC50 [3] of the same molecule?
Answer: Its IC50 is 1000 to 10000 nM.

Question: What does the source list for `Nc1ncnc2c1c(-c1ccc(Oc3ccccc3)cc1)nn2[C@@H]1CCCN(C(=O)N2CCC(c3ccc4c(c3)CN(C3CCC(=O)NC3=O)C4=O)CC2)C1` (stereo partly drawn) [Compound 48, 3-(5-(1-((R)-3-(4-amino-3-(4-phenoxyphenyl)-1H-pyrazolo[3,4-d]pyrimidin-1-yl)piperidine-1-carbonyl)piperidin-4-yl)-1-oxoisoindolin-2-yl)piperidine-2,6-dione]?
Answer: IC50 [1]: > 10000 nM; Dmax [2]: > 50%; DC50 [2]: > 50 nM; IC50 [3]: > 10000 nM

Question: Which results are given for `Nc1ncnc2c1c(-c1ccc(Oc3ccccc3)cc1)nn2[C@@H]1CCCN(C2CCN(C(=O)N3CCC(CCCN4CCN(c5ccc6c(c5)C(=O)N(C5CCC(=O)NC5=O)C6=O)CC4)CC3)CC2)C1` (stereo partly drawn) [Compound 193, 5-(4-(3-(1-((R)-3-(4-amino-3-(4-phenoxyphenyl)-1H-pyrazolo[3,4-d]pyrimidin-1-yl)-[1,4′-bipiperidine]-1′-carbonyl)piperidin-4-yl)propyl)piperazin-1-yl)-2-(2,6-dioxopiperidin-3-yl)isoindoline-1,3-dione]?
Answer: IC50 [1]: 1000 to 10000 nM; Dmax [2]: > 50%; DC50 [2]: 10 to 50 nM; IC50 [3]: > 10000 nM

Question: For `Nc1ncnc2c1c(-c1ccc(Oc3ccccc3)cc1)nn2[C@@H]1CCCN(C2CCN(C(=O)N3CCC(CCCN4CCN(c5ccc6c(c5)CN(C5CCC(=O)NC5=O)C6=O)CC4)CC3)CC2)C1` (stereo partly drawn) [Compound 194, 3-(5-(4-(3-(1-((R)-3-(4-amino-3-(4-phenoxyphenyl)-1H-pyrazolo[3,4-d]pyrimidin-1-yl)-[1,4′-bipiperidine]-1′-carbonyl)piperidin-4-yl)propyl)piperazin-1-yl)-1-oxoisoindolin-2-yl)piperidine-2,6-dione], which IC50 [1] is on record?
Answer: Its IC50 is 1000 to 10000 nM.

Question: What about the Dmax [2] of the same molecule?
Answer: The Dmax was greater than 75%.

Question: What about the DC50 [2] of the same molecule?
Answer: Its DC50 is 10 to 50 nM.

Question: And the IC50 [3]?
Answer: The IC50 was 1000 to 10000 nM.

Question: What does the source list for `Nc1ncnc2c1c(-c1ccc(Oc3ccccc3)cc1)nn2C1CCCN(CCOCCC2CCN(c3ccc4c(c3)C(=O)N(C3CCC(=O)NC3=O)C4=O)CC2)C1` (stereo not drawn) [Compound 23, 5-(4-(2-(2-(3-(4-amino-3-(4-phenoxyphenyl)-1H-pyrazolo[3,4-d]pyrimidin-1-yl)piperidin-1-yl)ethoxy)ethyl)piperidin-1-yl)-2-(2,6-dioxopiperidin-3-yl)isoindoline-1,3-dione]?
Answer: IC50 [1]: 1000 to 10000 nM; Dmax [2]: > 75%; DC50 [2]: > 50 nM; IC50 [3]: 1000 to 10000 nM
